Experimental data published in patent publication US8354432B2, “Cyclic derivatives as modulators of chemokine receptor activity” (Bristol-Myers Squibb Company, priority 2006, dated 2013).
Like-named read-outs stand apart in the source and are kept apart here.

Biological target: T1, CCR1 (Homo sapiens, UniProt P32246)
T1 construct: the THP-1 cell line, which expresses the endogenous CCR1 receptor; endogenous in cells; host or cells: THP-1 cells (human monocytic line); the text also allows human PBMC or human monocytes
T1 sequence (P32246 1-355): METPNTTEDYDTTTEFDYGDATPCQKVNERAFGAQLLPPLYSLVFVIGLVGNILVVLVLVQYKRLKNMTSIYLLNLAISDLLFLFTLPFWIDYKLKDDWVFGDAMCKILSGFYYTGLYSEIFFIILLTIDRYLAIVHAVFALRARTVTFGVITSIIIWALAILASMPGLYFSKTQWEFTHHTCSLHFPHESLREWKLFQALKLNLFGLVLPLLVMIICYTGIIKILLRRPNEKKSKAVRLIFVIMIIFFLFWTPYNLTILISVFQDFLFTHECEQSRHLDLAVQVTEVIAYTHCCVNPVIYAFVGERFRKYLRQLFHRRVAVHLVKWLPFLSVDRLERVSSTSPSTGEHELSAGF
Assay: Antagonism of MIP-1α binding to human THP-1 cells (CCR1 binding)
Procedure: Antagonism of MIP-1α Binding to Human THP-1 Cells
Compounds of the present invention have activity in the antagonism of MIP-1α binding to human THP-1 cells described here.
Millipore filter plates (#MABVN1250) are treated with 100 μl of binding buffer (0.5% bovine serum albumin, 20 mM HEPES buffer and 5 mM magnesium chloride in RPMI 1640 media) for thirty minutes at room temperature. To measure binding, 50 μl of binding buffer, with or without a known concentration of compound, is combined with 50 μl of ^125-I labeled human MIP-1α (to give a final concentration of 50 pM radioligand) and 50 μl of binding buffer containing 5×10^5 cells. Cells used for such binding assays can include the THP-1 cell line, which expresses the endogenous CCR1 receptor, or human peripheral blood mononuclear cells, isolated by Ficoll-Hypaque gradient centrifugation, or human monocytes (Weiner et al., J. Immunol. Methods, 1980, 36, 89). The mixture of compound, cells and radioligand is incubated at room temperature for thirty minutes. Plates are placed onto a vacuum manifold, vacuum applied, and the plates washed three times with binding buffer containing 0.5M NaCl. The plastic skirt is removed from the plate, the plate allowed to air dry, the wells punched out and counted. The percent inhibition of binding is calculated using the total counts obtained in the absence of any competing compound and the background binding determined by addition of 100 nM MIP-1α in place of the test compound.

[1] = 125-I labeled human MIP-1α (50 pM), THP-1 cells expressing endogenous CCR1, room temperature, thirty minutes, read-out: CCR1 Binding Ki (n = 1 unless otherwise noted)

`COc1cc(N2CCC(C(Cn3nc(C(F)(F)F)c(Cl)c3C)NC(=O)[C@@H](C)O)CC2)c(Cl)cc1Cl` (mixture of isomers) [Example 4n, (2R)-N-(2-(4-Chloro-5-methyl-3-(trifluoromethyl)-1H-pyrazol-1-yl)-1-(1-(2,4-dichloro-5-methoxyphenyl)piperidin-4-yl)ethyl)-2-hydroxypropanamide] was tested, and the Ki [1] was 3.46 ± 0.48 nM.
`COc1cc(N2CCC(C(O)Cn3nc(N)c4cccnc43)CC2)ccc1Cl` (racemic) [Example 2c, 2-(3-Amino-1H-pyrazolo[3,4-b]pyridin-1-yl)-1-(1-(4-chloro-3-methoxyphenyl)piperidin-4-yl)ethanol] gave a Ki [1] of roughly 2220 nM.
Molecule `COc1cc(N2CCC(C(O)Cn3nc(C(F)(F)F)nc3C)CC2)ccc1Cl` (racemic) [Example 2h, 1-(1-(4-Chloro-3-methoxyphenyl)piperidin-4-yl)-2-(5-methyl-3-(trifluoromethyl)-1H-1,2,4-triazol-1-yl)ethanol] has a Ki [1] of 156 nM.
For `COc1cc(N2CCC(C(N)Cn3nc(C(F)(F)F)c(Cl)c3C)CC2)c(Cl)cc1Cl` (racemic) [Example 4a, 2-(4-Chloro-5-methyl-3-(trifluoromethyl)-1H-pyrazol-1-yl)-1-(1-(2,4-dichloro-5-methoxyphenyl)piperidin-4-yl)ethanamine], the Ki [1] was 125 nM.
`COc1cc(N2CCC(C(Cn3nc(C(F)(F)F)c(Cl)c3C)NC(C)=O)CC2)c(Cl)cc1Cl` (racemic) [Example 4c, N-(2-(4-Chloro-5-methyl-3-(trifluoromethyl)-1H-pyrazol-1-yl)-1-(1-(2,4-dichloro-5-methoxyphenyl)piperidin-4-yl)ethyl)acetamide] showed a Ki [1] of 6.8 nM.
For `COc1cc(N2CCC(C(Cn3nc(C(F)(F)F)c(Cl)c3C)NC(=O)CF)CC2)c(Cl)cc1Cl` (racemic) [Example 4p, N-(2-(4-Chloro-5-methyl-3-(trifluoromethyl)-1H-pyrazol-1-yl)-1-(1-(2,4-dichloro-5-methoxyphenyl)piperidin-4-yl)ethyl)-2-fluoroacetamide], the Ki was 4.3 nM.
`COc1cc(N2CCC(C)(C(O)Cn3nc(C(F)(F)F)c(Cl)c3C)CC2)ccc1Cl` (racemic) [Example 11, 1-(1-(4-Chloro-3-methoxyphenyl)-4-methylpiperidin-4-yl)-2-(4-chloro-5-methyl-3-(trifluoromethyl)-1H-pyrazol-1-yl)ethanol] was tested, and the Ki [1] was roughly 1250 nM.
Work on `COc1cccc(N2CCC(C(O)Cn3nc(C(F)(F)F)c(Cl)c3C)CC2)c1` (racemic) [Example 15b, 2-(4-Chloro-5-methyl-3-(trifluoromethyl)-1H-pyrazol-1-yl)-1-(1-(3-methoxyphenyl)piperidin-4-yl)ethanol] yielded a Ki [1] of 1020 nM.
For `COc1cc(N2CCC(C(Cn3nc(C(F)(F)F)cc3C)NC(=O)CN)CC2)ccc1Cl` (single isomer, unassigned) [Example 5c, 2-amino-N-(1-(1-(4-chloro-3-methoxyphenyl)piperidin-4-yl)-2-(5-methyl-3-(trifluoromethyl)-1H-pyrazol-1-yl)ethyl)acetamide], the Ki [1] was 145 nM.
In the case of `COc1cc(N2CCC(C(Cn3nc(C(F)(F)F)c(Cl)c3C)NC(=O)CO)CC2)c(Cl)cc1Cl` (centres unmarked) [Example 4i, N-(2-(4-Chloro-5-methyl-3-(trifluoromethyl)-1H-pyrazol-1-yl)-1-(1-(2,4-dichloro-5-methoxyphenyl)piperidin-4-yl)ethyl)-2-hydroxyacetamide], the Ki [1] is reported as 5.15 ± 1.68 nM.
“N-(1-(1-(4-chloro-3-methoxyphenyl)piperidin-4-yl)-2-(5-methyl-3-(trifluoromethyl)-1H-pyrazol-1-yl)ethyl)-2-hydroxyacetamide [Example 5b]” gave a Ki [1] of roughly 2200 nM.
